Experimental data as given in US12077503B2, “Substituted cyclic amides and their use as herbicides” (FMC CORPORATION, priority 2015, dated 2024).
Like-named read-outs stand apart in the source and are kept apart here.

Experiments:
Assay type in all cases: in vivo
[1] = tested on: pigweed (Amaranthus retroflexus); experiment: Test A preemergence; settings: Amaranthus retroflexus, pre-emergence, 240 h; for pest or weed control at 125 g/ha: 125 g ai/ha; for pest or weed control at 500 g/ha: 500 g ai/ha, visual injury rating about 10 d after treatment, 0 to 100 scale (0 no effect, 100 complete control)
[2] = tested on: giant foxtail (Setaria faberii); experiment: Test A preemergence; settings: Setaria faberi, pre-emergence, 240 h; for pest or weed control at 125 g/ha: 125 g ai/ha, Preemergence, visual injury rating after approximately 10 d, read-out: Foxtail, Giant plant response rating (0 to 100 scale, 0 is no effect, 100 is complete control); for pest or weed control at 500 g/ha: 500 g ai/ha, preemergence, visual injury rating about 10 d after treatment, 0 to 100 scale (0 no effect, 100 complete control), read-out: Foxtail, Giant plant response rating
How it was run: (§1)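 Visual injury scores from 0, no effect, to 100, complete control, were assigned versus untreated controls roughly 10 d after treatment in the greenhouse. Test chemicals, formulated with surfactant in a non-phytotoxic solvent, were applied to planted seeds as a preemergence soil spray or postemergence to one- to two-leaf plants 2 to 10 cm tall, in loam–sand soil.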

[3] = tested on: ryegrass, Italian (Italian ryegrass, Lolium multiflorum); experiment: Test A preemergence; settings: Lolium multiflorum, pre-emergence, 240 h; for pest or weed control at 125 g/ha: 125 g ai/ha; for pest or weed control at 500 g/ha: 500 g ai/ha, visual injury rating about 10 d after treatment, 0 to 100 scale (0 no effect, 100 complete control)
How it was run: as §1

Kochia (Kochia scoparia) [4] = experiment: Test A preemergence; settings: Bassia scoparia, pre-emergence, 240 h; for pest or weed control at 125 g/ha: 125 g ai/ha; for pest or weed control at 500 g/ha: 500 g ai/ha, visual injury rating about 10 d after treatment, 0 to 100 scale (0 no effect, 100 complete control)
How it was run: as §1

[5] = tested on: ragweed (common ragweed, Ambrosia elatior); experiment: Test A preemergence; settings: Ambrosia artemisiifolia, pre-emergence, 240 h; for pest or weed control at 125 g/ha: 125 g ai/ha; for pest or weed control at 500 g/ha: 500 g ai/ha, visual injury rating about 10 d after treatment, 0 to 100 scale (0 no effect, 100 complete control)
How it was run: as §1

[6] = tested on: barnyardgrass (Echinochloa crus-galli); experiment: Test A preemergence; settings: Echinochloa crus-galli, pre-emergence, 240 h; for pest or weed control at 125 g/ha: 125 g ai/ha, Preemergence, visual injury rating after approximately 10 d, read-out: Barnyardgrass plant response rating (0 to 100 scale, 0 is no effect, 100 is complete control); for pest or weed control at 500 g/ha: 500 g ai/ha, preemergence, visual injury rating about 10 d after treatment, 0 to 100 scale (0 no effect, 100 complete control), read-out: Barnyardgrass plant response rating
How it was run: as §1

corn (Zea mays) = experiment: Test A postemergence; settings: Zea mays, post-emergence, 240 h
How it was run: as §1

[7] = tested on: wheat (Triticum aestivum); experiment: Test A postemergence; settings: Triticum aestivum, post-emergence, 240 h; for plant injury at 125 g/ha: 125 g ai/ha
How it was run: as §1

[8] = tested on: blackgrass (Alopecurus myosuroides); experiment: Test A postemergence; settings: Alopecurus myosuroides, post-emergence, 240 h; for pest or weed control at 125 g/ha: 125 g ai/ha
How it was run: as §1

[9] = tested on: giant foxtail (Setaria faberii); experiment: Test A postemergence; settings: Setaria faberi, post-emergence, 240 h; for pest or weed control at 125 g/ha: 125 g ai/ha
How it was run: as §1

[10] = tested on: ryegrass, Italian (Italian ryegrass, Lolium multiflorum); experiment: Test A postemergence; settings: Lolium multiflorum, post-emergence, 240 h; for pest or weed control at 125 g/ha: 125 g ai/ha
How it was run: as §1

Kochia (Kochia scoparia) [11] = experiment: Test A postemergence; settings: Bassia scoparia, post-emergence, 240 h; for pest or weed control at 125 g/ha: 125 g ai/ha
How it was run: as §1

[12] = tested on: ragweed (common ragweed, Ambrosia elatior); experiment: Test A postemergence; settings: Ambrosia artemisiifolia, post-emergence, 240 h; for pest or weed control at 125 g/ha: 125 g ai/ha
How it was run: as §1

[13] = tested on: Galium (catchweed bedstraw, Galium aparine); experiment: Test A postemergence; settings: Galium, post-emergence, 240 h; for pest or weed control at 125 g/ha: 125 g ai/ha
How it was run: as §1

[14] = tested on: barnyardgrass (Echinochloa crus-galli); experiment: Test A postemergence; settings: Echinochloa crus-galli, post-emergence, 240 h; for pest or weed control at 125 g/ha: 125 g ai/ha
How it was run: as §1

[15] = preemergence, read-out: Pigweed plant response rating
[16] = preemergence, read-out: Ryegrass, Italian plant response rating
[17] = preemergence, read-out: Kochia plant response rating
[18] = preemergence, read-out: Ragweed plant response rating

## Cc1ccc([C@H]2CN(C)C(=O)[C@]2(O)C(=O)Nc2cccc(F)c2F)cc1 (racemic) [Compound 1059]
[1]; preemergence, 0 to 100 scale where 0 is no effect and 100 is complete control, approx. 10 d, read-out: Pigweed plant response rating
  pest or weed control at 125 g/ha: 0%
[1]; [15]
  pest or weed control at 500 g/ha: 0%
[2]
  pest or weed control at 125 g/ha: 70%
  pest or weed control at 500 g/ha: 80%
[3]; preemergence, 0 to 100 scale where 0 is no effect and 100 is complete control, approx. 10 d, read-out: Ryegrass, Italian plant response rating
  pest or weed control at 125 g/ha: 0%
[3]; [16]
  pest or weed control at 500 g/ha: 0%
Kochia (Kochia scoparia) [4]; preemergence, 0 to 100 scale where 0 is no effect and 100 is complete control, approx. 10 d, read-out: Kochia plant response rating
  pest or weed control at 125 g/ha: 0%
Kochia (Kochia scoparia) [4]; [17]
  pest or weed control at 500 g/ha: 20%
[5]; preemergence, 0 to 100 scale where 0 is no effect and 100 is complete control, approx. 10 d, read-out: Ragweed plant response rating
  pest or weed control at 125 g/ha: 0%
[5]; [18]
  pest or weed control at 500 g/ha: 30%
[6]
  pest or weed control at 125 g/ha: 70%
  pest or weed control at 500 g/ha: 90%
Corn (Zea mays); 125 g ai/ha, postemergence, visual injury on 0 to 100 scale (0 no effect, 100 complete control), approx. 10 d, read-out: Corn plant response rating
  plant injury at 125 g/ha: 0%
Corn (Zea mays); 500 g ai/ha, postemergence, 0 to 100 scale, 0 is no effect, 100 is complete control, read-out: Corn plant response rating
  plant injury at 500 g/ha: 20%
[7]; postemergence, visual injury on 0 to 100 scale (0 no effect, 100 complete control), approx. 10 d, read-out: Wheat plant response rating
  plant injury at 125 g/ha: 0%
[7]; 500 g ai/ha, postemergence, 0 to 100 scale, 0 is no effect, 100 is complete control, read-out: Wheat plant response rating
  plant injury at 500 g/ha: 0%
[8]; postemergence, visual injury on 0 to 100 scale (0 no effect, 100 complete control), approx. 10 d, read-out: Blackgrass plant response rating
  pest or weed control at 125 g/ha: 0%
[8]; 500 g ai/ha, postemergence, 0 to 100 scale, 0 is no effect, 100 is complete control, read-out: Blackgrass plant response rating
  pest or weed control at 500 g/ha: 0%
[9]; postemergence, visual injury on 0 to 100 scale (0 no effect, 100 complete control), approx. 10 d, read-out: Foxtail, Giant plant response rating
  pest or weed control at 125 g/ha: 0%
[9]; 500 g ai/ha, postemergence, 0 to 100 scale, 0 is no effect, 100 is complete control, read-out: Foxtail, Giant plant response rating
  pest or weed control at 500 g/ha: 40%
[10]; postemergence, visual injury on 0 to 100 scale (0 no effect, 100 complete control), approx. 10 d, read-out: Ryegrass, Italian plant response rating
  pest or weed control at 125 g/ha: 0%
[10]; 500 g ai/ha, postemergence, 0 to 100 scale, 0 is no effect, 100 is complete control, read-out: Ryegrass, Italian plant response rating
  pest or weed control at 500 g/ha: 20%
Kochia (Kochia scoparia) [11]; postemergence, visual injury on 0 to 100 scale (0 no effect, 100 complete control), approx. 10 d, read-out: Kochia plant response rating
  pest or weed control at 125 g/ha: 0%
Kochia (Kochia scoparia) [11]; 500 g ai/ha, postemergence, 0 to 100 scale, 0 is no effect, 100 is complete control, read-out: Kochia plant response rating
  pest or weed control at 500 g/ha: 0%
[12]; postemergence, visual injury on 0 to 100 scale (0 no effect, 100 complete control), approx. 10 d, read-out: Ragweed plant response rating
  pest or weed control at 125 g/ha: 0%
[12]; 500 g ai/ha, postemergence, 0 to 100 scale, 0 is no effect, 100 is complete control, read-out: Ragweed plant response rating
  pest or weed control at 500 g/ha: 0%
[13]; postemergence, visual injury on 0 to 100 scale (0 no effect, 100 complete control), approx. 10 d, read-out: Galium plant response rating
  pest or weed control at 125 g/ha: 0%
[13]; 500 g ai/ha, postemergence, 0 to 100 scale, 0 is no effect, 100 is complete control, read-out: Galium plant response rating
  pest or weed control at 500 g/ha: 0%
[14]; postemergence, visual injury on 0 to 100 scale (0 no effect, 100 complete control), approx. 10 d, read-out: Barnyardgrass plant response rating
  pest or weed control at 125 g/ha: 40%
[14]; 500 g ai/ha, postemergence, 0 to 100 scale, 0 is no effect, 100 is complete control, read-out: Barnyardgrass plant response rating
  pest or weed control at 500 g/ha: 90%

## O=C1NC[C@H](c2cc(C(F)(F)F)ccn2)[C@H]1C(=O)Nc1ccccc1F [Compound 948]
[1]; Preemergence, visual injury rating after approximately 10 d, read-out: Pigweed plant response rating (0 to 100 scale, 0 is no effect, 100 is complete control)
  pest or weed control at 125 g/ha: 0%
[1]; [15]
  pest or weed control at 500 g/ha: 0%
[2]
  pest or weed control at 125 g/ha: 70%
  pest or weed control at 500 g/ha: 90%
[3]; Preemergence, visual injury rating after approximately 10 d, read-out: Ryegrass, Italian plant response rating (0 to 100 scale, 0 is no effect, 100 is complete control)
  pest or weed control at 125 g/ha: 0%
[3]; [16]
  pest or weed control at 500 g/ha: 0%
Kochia (Kochia scoparia) [4]; Preemergence, visual injury rating after approximately 10 d, read-out: Kochia plant response rating (0 to 100 scale, 0 is no effect, 100 is complete control)
  pest or weed control at 125 g/ha: 0%
Kochia (Kochia scoparia) [4]; [17]
  pest or weed control at 500 g/ha: 0%
[5]; Preemergence, visual injury rating after approximately 10 d, read-out: Ragweed plant response rating (0 to 100 scale, 0 is no effect, 100 is complete control)
  pest or weed control at 125 g/ha: 0%
[5]; [18]
  pest or weed control at 500 g/ha: 0%
[6]
  pest or weed control at 125 g/ha: 70%
  pest or weed control at 500 g/ha: 90%
Corn (Zea mays); 125 g ai/ha, Postemergence, visual injury after approximately 10 d, 0 to 100 scale where 0 is no effect and 100 is complete control
  Corn plant response rating (crop injury, 0 = no effect, 100 = complete kill) at 125 g/ha: 0%
[7]; Postemergence, visual injury after approximately 10 d, 0 to 100 scale where 0 is no effect and 100 is complete control, read-out: Plant response rating, Wheat
  plant injury at 125 g/ha: 0%
[8]; Postemergence, visual injury after approximately 10 d, 0 to 100 scale where 0 is no effect and 100 is complete control, read-out: Plant response rating, Blackgrass
  pest or weed control at 125 g/ha: 0%
[9]; Postemergence, visual injury after approximately 10 d, 0 to 100 scale where 0 is no effect and 100 is complete control, read-out: Plant response rating, Foxtail, Giant
  pest or weed control at 125 g/ha: 70%
[10]; Postemergence, visual injury after approximately 10 d, 0 to 100 scale where 0 is no effect and 100 is complete control, read-out: Plant response rating, Ryegrass, Italian
  pest or weed control at 125 g/ha: 0%
Kochia (Kochia scoparia) [11]; Postemergence, visual injury after approximately 10 d, 0 to 100 scale where 0 is no effect and 100 is complete control, read-out: Plant response rating, Kochia
  pest or weed control at 125 g/ha: 0%
[12]; Postemergence, visual injury after approximately 10 d, 0 to 100 scale where 0 is no effect and 100 is complete control, read-out: Plant response rating, Ragweed
  pest or weed control at 125 g/ha: 0%
[13]; Postemergence, visual injury after approximately 10 d, 0 to 100 scale where 0 is no effect and 100 is complete control, read-out: Plant response rating, Galium
  pest or weed control at 125 g/ha: 0%
[14]; Postemergence, visual injury after approximately 10 d, 0 to 100 scale where 0 is no effect and 100 is complete control, read-out: Plant response rating, Barnyardgrass
  pest or weed control at 125 g/ha: 70%
